Values belong to the compound of their own block, whether it stands above or below them.
Key:
[1] = molecular target: T1, ATP-dependent translocase ABCB1 (Homo sapiens, UniProt P08183); test: (§1) TP_TRANSPORTER: ATP hydrolysis in membrane fraction from High Five (BTI-TN5B1-4) cells; type: functional, cell membranes, BTI-TN-5B1-4; details: bti-tn-5b1-4
[2] = molecular target: P-glycoprotein 1 and 3 (MDR1a/MDR1b) (Mus musculus, UniProt P21447+P06795); test: TP_TRANSPORTER: increase in brain concentration in mdr1a/1b(-/-) mouse; type: functional, organism-based; details: in vivo
[3] = molecular target: T1, ATP-dependent translocase ABCB1; test: TP_TRANSPORTER: transepithelial transport (apical to basal) of Daunorubicin (Daunomycin) at a concentration of 200 nM in MDR1-expressing LLC-PK1 cells; type: functional, cell-based; details: pig, llc-pk1, 0.2 µM
[4] = molecular target: T1, ATP-dependent translocase ABCB1; test: TP_TRANSPORTER: transepithelial transport (apical to basal) of Dexamethasone at a concentration of 24.7 nM in MDR1-expressing LLC-PK1 cells; type: functional, cell-based; details: pig, llc-pk1, 0.0247 µM
[5] = molecular target: T1, ATP-dependent translocase ABCB1; test: TP_TRANSPORTER: transepithelial transport (apical to basal) of Digoxin at a concentration of 52.6 nM in MDR1-expressing LLC-PK1 cells; type: functional, cell-based; details: pig, llc-pk1, 0.0526 µM
[6] = molecular target: ATP-dependent translocase ABCB1 (P-glycoprotein) (Homo sapiens, UniProt P08183); test: as §1; type: functional, cell membranes, BTI-TN-5B1-4; details: membrane fraction from High Five (BTI-TN5B1-4) cells
Chain of ATP-dependent translocase ABCB1 (P-glycoprotein) (P08183 whole entry): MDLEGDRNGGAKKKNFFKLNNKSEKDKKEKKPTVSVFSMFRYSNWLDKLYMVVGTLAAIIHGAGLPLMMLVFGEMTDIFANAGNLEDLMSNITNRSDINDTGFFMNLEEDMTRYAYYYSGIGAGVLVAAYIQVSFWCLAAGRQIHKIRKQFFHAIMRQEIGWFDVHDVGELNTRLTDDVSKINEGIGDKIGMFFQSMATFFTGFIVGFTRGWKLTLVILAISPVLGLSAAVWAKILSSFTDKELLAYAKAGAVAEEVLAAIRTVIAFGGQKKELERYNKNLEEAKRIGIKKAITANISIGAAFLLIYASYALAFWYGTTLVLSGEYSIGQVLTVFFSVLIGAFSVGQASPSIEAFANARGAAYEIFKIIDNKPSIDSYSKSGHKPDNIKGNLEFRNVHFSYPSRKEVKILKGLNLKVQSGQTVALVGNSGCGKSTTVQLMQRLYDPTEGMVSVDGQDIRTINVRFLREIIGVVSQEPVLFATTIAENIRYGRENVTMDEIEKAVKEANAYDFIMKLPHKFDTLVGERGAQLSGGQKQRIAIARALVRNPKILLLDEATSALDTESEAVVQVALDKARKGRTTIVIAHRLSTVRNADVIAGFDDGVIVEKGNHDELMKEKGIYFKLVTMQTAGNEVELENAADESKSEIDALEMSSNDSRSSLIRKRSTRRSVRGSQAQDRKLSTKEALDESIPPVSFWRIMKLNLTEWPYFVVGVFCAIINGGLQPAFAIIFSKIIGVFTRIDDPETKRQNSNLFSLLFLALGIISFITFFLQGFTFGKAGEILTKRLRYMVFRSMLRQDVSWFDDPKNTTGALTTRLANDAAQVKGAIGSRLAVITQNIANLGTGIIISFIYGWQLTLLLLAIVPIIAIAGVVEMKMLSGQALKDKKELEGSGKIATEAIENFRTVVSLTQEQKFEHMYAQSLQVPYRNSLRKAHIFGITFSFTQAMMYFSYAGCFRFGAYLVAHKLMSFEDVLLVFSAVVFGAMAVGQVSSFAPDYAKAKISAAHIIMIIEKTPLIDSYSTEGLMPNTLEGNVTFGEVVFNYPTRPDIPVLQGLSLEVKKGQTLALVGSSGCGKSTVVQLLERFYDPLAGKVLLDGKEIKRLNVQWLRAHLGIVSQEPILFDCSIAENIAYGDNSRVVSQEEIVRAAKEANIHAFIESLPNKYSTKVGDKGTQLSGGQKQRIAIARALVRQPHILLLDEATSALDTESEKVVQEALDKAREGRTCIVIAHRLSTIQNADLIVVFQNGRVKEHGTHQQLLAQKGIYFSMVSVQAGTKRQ

[7] = molecular target: T1, ATP-dependent translocase ABCB1; test: TP_TRANSPORTER: transepithelial transport (apical to basal) of Loperamide at a concentration of 1 uM in MDR1-expressing LLC-PK1 cells; type: functional, cell-based; details: pig, llc-pk1, 1 µM
[8] = molecular target: T1, ATP-dependent translocase ABCB1; test: TP_TRANSPORTER: transepithelial transport (apical to basal) of Progesterone at 7 nM in MDR1-expressing LLC-PK1 cells; type: functional, cell-based; details: pig, llc-pk1, 0.007 µM
[9] = molecular target: T1, ATP-dependent translocase ABCB1; test: TP_TRANSPORTER: transepithelial transport (apical to basal) of Vinblastine at a concentration of 22.5 nM in MDR1-expressing LLC-PK1 cells; type: functional, cell-based; details: pig
[10] = system: CN1C(=O)CN=C(c2ccccc2)c2cc(Cl)ccc21; test: as §1; type: functional, cell membranes, BTI-TN-5B1-4

T1 sequence (P08183 whole entry): as above

Compound: CN/C(=N/CCSCc1nc[nH]c1C)NC#N [CIMETIDINE]
Activity [1]: is not a substrate [-]

Activity [2]: substrate [+] | Activity [3]: substrate [+]
Compound: COc1cccc2c1C(=O)c1c(O)c3c(c(O)c1C2=O)C[C@@](O)(C(C)=O)C[C@@H]3O[C@H]1C[C@H](N)[C@H](O)[C@H](C)O1 [DAUNORUBICIN]

Activity [1]: is not a substrate [-] | Activity [4]: substrate [+]
Compound: C[C@@H]1C[C@H]2[C@@H]3CCC4=CC(=O)C=C[C@]4(C)[C@@]3(F)[C@@H](O)C[C@]2(C)[C@@]1(O)C(=O)CO [DEXAMETHASONE]

Activity [5]: substrate [+]
Compound: C[C@H]1O[C@@H](O[C@H]2[C@@H](O)C[C@H](O[C@H]3[C@@H](O)C[C@H](O[C@H]4CC[C@@]5(C)[C@H](CC[C@@H]6[C@@H]5C[C@@H](O)[C@]5(C)[C@@H](C7=CC(=O)OC7)CC[C@]65O)C4)O[C@@H]3C)O[C@@H]2C)C[C@H](O)[C@@H]1O [DIGOXIN]

Compound: C[C@]12CC[C@@H]3c4ccc(O)cc4CC[C@H]3[C@@H]1CC[C@@H]2O[C@@H]1O[C@H](C(=O)O)[C@@H](O)[C@H](O)[C@H]1O [ESTRADIOL 17B GLUCURONIDE]
Activity [1]: substrate [+]

Compound: CN(C)C(=O)C(CCN1CCC(O)(c2ccc(Cl)cc2)CC1)(c1ccccc1)c1ccccc1 [LOPERAMIDE]
Km [6]: 13.8 µM | Activity [7]: substrate [+]

Compound: CC(=O)[C@H]1CC[C@H]2[C@@H]3CCC4=CC(=O)CC[C@]4(C)[C@H]3CC[C@]12C [PROGESTERONE]
Activity [8]: is not a substrate [-]

Activity [9]: substrate [+]
Compound: CC[C@]1(O)C[C@@H]2CN(CCc3c([nH]c4ccccc34)[C@@](C(=O)OC)(c3cc4c(cc3OC)N(C)[C@H]3[C@@](O)(C(=O)OC)[C@H](OC(C)=O)[C@]5(CC)C=CCN6CC[C@]43[C@@H]65)C2)C1 [VINBLASTINE]

Compound: ATP-dependent translocase ABCB1 (Homo sapiens)
Km [10]: 72.4 µM

— ChEMBL document CHEMBL2074016, “Comparative studies on in vitro methods for evaluating in vivo function of MDR1 P-glycoprotein” (Pharm Res, 2001)
